Test results published in ChEMBL document CHEMBL1153757, “Multivariate QSAR study of 4,5-dihydroxypyrimidine carboxamides as HIV-1 integrase inhibitors” (Eur J Med Chem, 2009).

Target: Human immunodeficiency virus type 1 integrase (Human immunodeficiency virus 1, UniProt Q7ZJM1)
Test: Inhibition of HIV1 integrase strand transfer activity

Human immunodeficiency virus type 1 integrase, sequence (Q7ZJM1 whole entry): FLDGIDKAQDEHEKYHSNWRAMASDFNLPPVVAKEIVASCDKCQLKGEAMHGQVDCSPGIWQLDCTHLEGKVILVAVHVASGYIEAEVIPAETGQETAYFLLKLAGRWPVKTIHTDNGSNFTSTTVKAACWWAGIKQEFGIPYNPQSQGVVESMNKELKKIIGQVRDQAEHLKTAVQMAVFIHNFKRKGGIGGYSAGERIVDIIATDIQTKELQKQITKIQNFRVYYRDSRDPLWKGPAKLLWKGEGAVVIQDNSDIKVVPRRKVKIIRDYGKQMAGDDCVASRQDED

Row | IC50 | SMILES
1 | 17000 nM | O=C(NCn1ccnc1)c1nc(-c2cccs2)nc(O)c1O
2 | 50100 nM | O=C(NCn1cncn1)c1nc(-c2cccs2)nc(O)c1O
3 | 2510 nM | O=C(NCc1cncs1)c1nc(-c2cccs2)nc(O)c1O
4 | 30.2 nM | O=C(Nc1ccc2ccccc2c1)c1nc(-c2cccs2)nc(O)c1O
5 | 10 nM | O=C(NCc1cc2ccccc2s1)c1nc(-c2cccs2)nc(O)c1O
6 | 50.1 nM | O=C(NCc1csc2ccccc12)c1nc(-c2cccs2)nc(O)c1O
7 | 100 nM | O=C(NCc1cccs1)c1nc(-c2cccs2)nc(O)c1O
8 | 200 nM | O=C(NCc1nccs1)c1nc(-c2cccs2)nc(O)c1O
9 | 91.2 nM | COc1ccccc1CNC(=O)c1nc(-c2cccs2)nc(O)c1O
10 | 162 nM | O=C(NCc1ccccc1F)c1nc(-c2cccs2)nc(O)c1O
11 | 214 nM | O=C(Nc1cccc2ccccc12)c1nc(-c2cccs2)nc(O)c1O
12 | 20 nM | O=C(N[C@@H]1CCc2ccccc21)c1nc(-c2cccs2)nc(O)c1O
13 | 10 nM | O=C(NCC1CCCCC1)c1nc(-c2cccs2)nc(O)c1O
14 | 617 nM | O=C(N[C@H]1CCc2ccccc21)c1nc(-c2cccs2)nc(O)c1O
